Data on two compounds can be found in patent US20100093638A1, “TREAMENT FOR CHEMICAL SUBSTANCE ADDICTION” (priority 2007, published 2010).

No end group written: not given here.

Assay [1] concerns ghrelin receptor (GHS-R1A) knockout mice. Conditions: alcohol 1.0 g/kg ip; GHSR knockout mice vs wt/wt.
Description: The mice were implanted with a microdialysis probe in the nucleus accumbens for measurements of extracellular dopamine levels. […] The mice were connected to the microdialysis apparatus via a liquid swivel (CMA/Microdialysis AB, Stockholm, Sweden) and were able to move freely during the experiment. After one hour of habituation to the microdialysis perfusion set up, perfusion samples (30 μl) were collected every 20 minutes. Five samples were collected prior to the first alcohol challenge. The baseline dopamine level is defined as the averaged concentration of the three consecutive samples before the first alcohol challenge. Thereafter vehicle (saline, ip) was administered at time 0 minutes.
The test system is the same in assay [2]. Conditions: alcohol 1.0 g/kg i.p.; GHS-R knockout mice vs wildtype; P<0.05.
Excerpt: Locomotor activity was registered in eight sound attenuated, ventilated and dimly lit locomotor boxes (420×420×200 mm, Plexiglas®). Five by five rows of photocell beams at the floor level of the box allowed a computer-based system to register the activity of the mice. The mice were allowed to habituate to the environment in the box for one hour before drug challenge and initialization of the experiment. […] Locomotor activity was defined as the accumulated number of new photocell beams interrupted during a 60-minute period.
For another assay, the system named is mice. Briefly: Effects of central ghrelin injection on alcohol intake and alcohol preference, two-bottle free choice paradigm. Type of assay: in vivo. Conditions: for average alcohol intake / average alcohol preference: ghrelin 2 μg in 1 μl into third ventricle; for average alcohol intake: baseline 1.65; for average alcohol preference: day before 26.76%. The source says:
The following studies sought to determine whether ghrelin increases alcohol intake and the preference for alcohol in mice selected on the basis of their spontaneous level of alcohol intake. We tested the effects of ghrelin injection into the brain ventricles on alcohol consumption and alcohol preference in mice.
All mice used in this study were selected on the basis of their spontaneously medium level of alcohol intake. Initially, the mice were able to choose freely between alcohol solution (10%) and water. When they had established a stable alcohol intake (approximately 20-80% of their total fluid intake was alcohol) they began a training schedule that gave them access to 10% alcohol for 90 min ever day over two weeks. The mice were then implanted with a cannula into the third ventricle of the brain for subsequent injection. During a baseline period, spontaneous alcohol intake was measured during a 90 min period average for 3 measurements taken on 3 days using a two-bottle free choice paradigm (i.e. water or 10% alcohol). The same protocol was used after ghrelin/vehicle injection on the experimental days.

Setting [3] is: intraventricular administration, p<0.05, paired t-test.

Regarding `CCO` [alcohol], in assay [1], the “alcohol-induced accumbal dopamine release” value is “blunted”. The alcohol-induced locomotor activity result in assay [2] is “do not show an alcohol-induced locomotor activity”.
In the assay on mice (experiment day one), “ghrelin (GSSFLSPEHQRVQQRKESKKPPAKLQPR; ends and bridges not checked; UniProt Q9UBU3 24-51, looked up) [endogenous ligand for GHS-R, secreted by stomach tissue; purchasable from Bachem]” registered an average alcohol intake of 1.72 g/kg/1.5 hr and an average alcohol preference of 31.72%. In the assay on mice (experiment day two), this compound registered an average alcohol intake of 2.15 g/kg/1.5 hr and an average alcohol preference of 33.70%. For the same compound, in the assay with mice (setting [3]), the “effect on alcohol intake compared to the day before the experiments” value is listed as “increased the alcohol intake” and the “effect on alcohol preference compared to the day before the experiments” value is reported as “significant increase of alcohol preference”.
